# Laboratory results reported in PMC5419589 (Bioorganic & medicinal chemistry, 2016).
# Where a name gives a salt, the structure may show the parent alone.
# Tests used:
# [1] = Brain:plasma compound concentration measurements in mice; format: in vivo; conditions: following intraperitoneal injection in mice
# [2] = system: T. brucei brucei strain BF427; assay: T. brucei growth inhibition assay; format: cell-based, Trypanosoma brucei brucei; conditions: for EC50: Trypanosoma brucei, 48 h, read-out: EC50, concentration required to inhibit growth by 50% of T. brucei brucei, strain BF427, 48H, AlamarBlue; for activity on T. brucei cells (in words): T. brucei EC50 assay; for fold reduction of potency compared to compound 2: vs 2, T. brucei EC50
# [3] = system: T. brucei brucei (strain TREU667); assay: Chronic; format: in vivo, mouse; conditions: for relapse with parasites in the blood / suppression of parasitemia during treatment phase: TREU667, 50 mg/kg twice a day oral day 21 to 34; for number of mice free of parasitemia/number of mice in the group: same dosing
# [4] = Mouse oral pharmacokinetics; format: in vivo; conditions: mice
# [5] = severe side effects of treatment; cited from earlier work
smiles,measurement,setting,value
Cl.NCCN(C(=O)c1ccc(Cl)cc1Cl)c1ccc(F)cc1 [Compound 1],permeability into brain tissue (in words),[1],excellent permeability into brain tissue
"Cl.NCCN(C(=O)c1ccc(Cl)cc1Cl)c1ccc(Oc2cccc(Cl)c2)cc1 [Compound 17, N-(2-Aminoethyl)-2,4-dichloro-N-[4-(3-chlorophenoxy)phenyl] benzamide hydrochloride]",fold enhancement of potency with respect to compound 1,"[2]; vs 1, T. brucei EC50",4 fold
"Cl.NCCN(C(=O)c1ccccc1Cl)c1ccc(Cl)cc1 [Compound 23, N-(2-Aminoethyl)-2-chloro-N-(4-chlorophenyl)benzamide hydrochloride]",fold more active than 4-chlorobenzoyl derivative 21,[2]; vs 21,~8 fold
same,fold more active than 3-chloro (22),[2]; vs 22,3 fold
"Cc1ccccc1C(=O)N(CCN)c1ccc(Cl)cc1.Cl [Compound 24, N-(2-Aminoethyl)-N-(4-chlorophenyl)-2-methylbenzamide hydrochloride]",fold more active than 4-methyl derivative 25,[2]; vs 25,14 fold
"COc1ccccc1C(=O)N(CCN)c1ccc(Cl)cc1.Cl [Compound 26, N-(2-Aminoethyl)-N-(4-chlorophenyl)-2-methoxybenzamide hydrochloride]","times less active compared to 23, 24","[2]; vs 23, 24",at least 5 fold
same,times more potent than 4-methoxy (27),[2]; vs 27,at least 4 fold
"Cl.NCCN(C(=O)c1cc([N+](=O)[O-])ccc1Cl)c1ccc(Cl)cc1 [Compound 36, N-(2-Aminoethyl)-2-chloro-N-(4-chlorophenyl)-5-nitrobenzamide hydrochloride]",times less potent than 2-chloro analogue 23,[2]; vs 23,3 fold
"Cl.NCCN(C(=O)c1ccc(F)cc1F)c1ccc(Cl)cc1 [Compound 40, N-(2-Aminoethyl)-N-(4-chlorophenyl)-2,4-difluorobenzamide hydrochloride]",fold more active than 2-floro (30) or 4-fluoro (28) derivatives,[2]; vs 30 or 28,at least 3 fold
"Cl.NCCN(C(=O)c1c(F)c(F)c(F)c(F)c1F)c1ccc(Cl)cc1 [Compound 41, N-(2-Aminoethyl)-N-(4-chlorophenyl)-2,3,4,5,6-pentafluorobenzamide hydrochloride]",fold improvement in activity compared to 20,[2]; vs 20,26 fold
"NCCN(C(=O)c1ccccc1C(F)(F)F)c1ccc(Cl)cc1 [Compound 42, N-(2-aminoethyl)-N-(4-chlorophenyl)-2-(trifluoromethyl) benzamide hydrochloride]",EC50,[2],180 nM
"CCN(C(=O)c1ccc(Cl)cc1Cl)c1ccc(F)cc1 [Compound 45, 2,4-Dichloro-N-ethyl-N-(4-fluorophenyl)benzamide]",activity on T. brucei cells (in words),[2],eliminated anti-T. brucei activity
same,EC50,[2],> 10000 nM
"CC(=O)NCCN(C(=O)c1ccc(Cl)cc1Cl)c1ccc(Cl)cc1 [Compound 46, N-{2-[N-(4-Chlorophenyl)-1-(2,4-dichlorophenyl)formamido]ethyl}acetamide]",activity on T. brucei cells (in words),[2],eliminated anti-T. brucei activity
"CN(C)CCN(C(=O)c1ccc(Cl)cc1Cl)c1ccc(Cl)cc1 [Compound 47, 2,4-Dichloro-N-(4-chlorophenyl)-N-[2-(dimethylamino)ethyl] benzamide]",activity on T. brucei cells (in words),[2],eliminated anti-T. brucei activity
"O=C(c1ccc(Cl)cc1Cl)N(CCN1CCOCC1)c1ccc(Cl)cc1 [Compound 48, 2,4-Dichloro-N-(4-chlorophenyl)-N-[2-(morpholin-4-yl)ethyl] benzamide]",activity on T. brucei cells (in words),[2],inactive
"O=C(c1ccc(Cl)cc1Cl)N(CCO)c1ccc(Cl)cc1 [Compound 49, 2,4-Dichloro-N-(4-chlorophenyl)-N-(2-hydroxyethyl)benzamide]",activity on T. brucei cells (in words),[2],inactive
"Cl.NCCCN(C(=O)c1ccc(Cl)cc1Cl)c1ccc(Cl)cc1 [Compound 50, N-(3-Aminopropyl)-2,4-dichloro-N-(4-chlorophenyl)benzamide]",fold reduction of potency compared to compound 2,[2],10 fold
"CNCCN(C(=O)c1ccc(Cl)cc1Cl)c1ccc(Cl)cc1.Cl [Compound 58, 2,4-Dichloro-N-(4-chlorophenyl)-N-[2-(methylamino)ethyl] benzamide hydrochloride]",fold reduction of potency compared to compound 2,[2],5 fold
"N#CCN(C(=O)c1ccc(Cl)cc1Cl)c1ccc(Cl)cc1 [Compound 60, 2,4-Dichloro-N-(4-chlorophenyl)-N-(cyanomethyl)benzamide]",activity on T. brucei cells (in words),[2],inactive
"Cl.O=C(c1ccc(Cl)cc1Cl)N(c1ccc(Cl)cc1)c1cccnc1 [Compound 63, 2,4-Dichloro-N-(4-chlorophenyl)-N-(pyridin-3-yl)benzamide]",activity on T. brucei cells (in words),[2],inactive
"Cl.NCCN(C(=O)c1ccc(F)cc1C(F)(F)F)c1ccc(OCc2ccc(Cl)cc2)cc1 [Compound 65, N-(2-Aminoethyl)-N-{4-[(4-chlorophenyl)methoxy]phenyl}-4-fluoro-2-(trifluoromethyl)benzamide hydrochloride]",relapse with parasites in the blood,[3],all mice relapsed
same,suppression of parasitemia during treatment phase,[3],partial suppression
same,number of mice free of parasitemia/number of mice in the group,"[3]; day 35 post-infection, day 1 post-treatment",4/4
same,number of mice free of parasitemia/number of mice in the group,"[3]; day 36 post-infection, day 2 post-treatment",4/4
same,number of mice free of parasitemia/number of mice in the group,"[3]; day 37 post-infection, day 3 post-treatment",2/4
same,number of mice free of parasitemia/number of mice in the group,"[3]; day 38 post-infection, day 4 post-treatment",1/4
same,number of mice free of parasitemia/number of mice in the group,"[3]; day 39 post-infection, day 5 post-treatment",1/4
same,number of mice free of parasitemia/number of mice in the group,"[3]; day 40 post-infection, day 6 post-treatment",1/4
same,number of mice free of parasitemia/number of mice in the group,"[3]; day 41–42 post-infection, day 7–8 post-treatment",1/4
same,number of mice free of parasitemia/number of mice in the group,"[3]; day 43–45 post-infection, day 9–11 post-treatment",1/4
same,number of mice free of parasitemia/number of mice in the group,"[3]; day 46–49 post-infection, day 12–15 post-treatment",0/4
same,activity on T. brucei cells (in words),[2],single digit nanomolar EC50 values
"Cl.NCCN(C(=O)c1ccccc1C(F)(F)F)c1ccc(OCc2ccc(Cl)cc2)cc1 [Compound 66, N-(2-Aminoethyl)-N-{4-[(4-chlorophenyl)methoxy]phenyl}-2-(trifluoromethyl)benzamide hydrochloride]",activity on T. brucei cells (in words),[2],single digit nanomolar EC50 values
"Cl.NCCN(C(=O)c1cccnc1C(F)(F)F)c1ccc(OCc2ccc(Cl)cc2)cc1 [Compound 68, N-(2-Aminoethyl)-N-{4-[(4-chlorophenyl)methoxy]phenyl}-2-(trifluoromethyl)pyridine-3-carboxamide hydrochloride]",fold more active than 2-chloronicotinoyl (67),[2]; vs 67,10 fold
CC(C)c1ccc(COc2ccc(N(CCN)C(=O)c3cccnc3C(F)(F)F)cc2)cc1.Cl [Compound 73],oral bioavailability (in words),[4],orally bioavailable
same,relapse with parasites in the blood,[3],all mice relapsed
same,suppression of parasitemia during treatment phase,[3],complete suppression
Nc1nc(N)nc(Nc2ccc([As]3SCC(CO)S3)cc2)n1 (stereo not drawn) [Melarsoprol],fatalities in patients,[5],3–10%
